The numbers were not newly measured in patent US20090291465A1, “Screening Method for Identifying New Drugs” (FUNDACIÓ PRIVADA PARC CIENTÍFIC DE BARCELONA, priority 2006, published 2009), which cites them from elsewhere.

Data set [1] has as its system isoleucyl-tRNA synthetases (IIeRS).
The conditions of data set [2]: limits its use to topical applications.

Consider `C/C(=C\C(=O)OCCCCCCCCC(=O)O)C[C@@H]1OC[C@H](C[C@@H]2O[C@H]2[C@@H](C)[C@H](C)O)[C@@H](O)[C@H]1O` [Pseudomonic acid], for which, in data set [1], the “selectivity for pathogen vs. mammalian IIeRS” value was ~8000 fold. For the same compound, the systemic bioavailability result in data set [2] is reported as “lack of systemic bioavailability”.
